{"source": "the NIST ThermoML archive (doi:10.1021/je900414p)", "assay": "xn = mol fraction of the nth substance listed", "conditions": "333.15 K, Liquid", "note": "± gives the expanded uncertainty stated by the source."}
{"smiles": "CCOS(=O)(=O)[O-].CCn1cc[n+](C)c1", "note": "[1-ethyl-3-methylimidazolium ethyl sulfate] + CCO", "values": [{"measurement": "mass density", "setting": "100 kPa, x1 = 0.05056", "result": "826.91 ± 0.71", "unit": "kg/m3"}, {"measurement": "mass density", "setting": "100 kPa, x1 = 0.103", "result": "885.77 ± 0.62", "unit": "kg/m3"}, {"measurement": "mass density", "setting": "100 kPa, x1 = 0.1247", "result": "907.28 ± 0.58", "unit": "kg/m3"}, {"measurement": "mass density", "setting": "100 kPa, x1 = 0.2126", "result": "977.1 ± 0.5", "unit": "kg/m3"}, {"measurement": "mass density", "setting": "100 kPa, x1 = 0.2919", "result": "1026.55 ± 0.48", "unit": "kg/m3"}, {"measurement": "mass density", "setting": "100 kPa, x1 = 0.3185", "result": "1039.85 ± 0.49", "unit": "kg/m3"}, {"measurement": "mass density", "setting": "100 kPa, x1 = 0.4198", "result": "1083.92 ± 0.54", "unit": "kg/m3"}, {"measurement": "mass density", "setting": "100 kPa, x1 = 0.4847", "result": "1106.62 ± 0.57", "unit": "kg/m3"}, {"measurement": "mass density", "setting": "100 kPa, x1 = 0.5713", "result": "1132.56 ± 0.62", "unit": "kg/m3"}, {"measurement": "mass density", "setting": "100 kPa, x1 = 0.6827", "result": "1159.67 ± 0.66", "unit": "kg/m3"}, {"measurement": "mass density", "setting": "100 kPa, x1 = 0.7919", "result": "1181.63 ± 0.7", "unit": "kg/m3"}, {"measurement": "mass density", "setting": "100 kPa, x1 = 0.9317", "result": "1203.54 ± 0.74", "unit": "kg/m3"}, {"measurement": "mass density", "setting": "2500 kPa, x1 = 0.05056", "result": "829.15 ± 0.78", "unit": "kg/m3"}, {"measurement": "mass density", "setting": "2500 kPa, x1 = 0.103", "result": "887.83 ± 0.65", "unit": "kg/m3"}, {"measurement": "mass density", "setting": "2500 kPa, x1 = 0.1247", "result": "909.17 ± 0.61", "unit": "kg/m3"}, {"measurement": "mass density", "setting": "2500 kPa, x1 = 0.2126", "result": "978.86 ± 0.48", "unit": "kg/m3"}, {"measurement": "mass density", "setting": "2500 kPa, x1 = 0.2919", "result": "1027.68 ± 0.49", "unit": "kg/m3"}, {"measurement": "mass density", "setting": "2500 kPa, x1 = 0.3185", "result": "1041.25 ± 0.5", "unit": "kg/m3"}, {"measurement": "mass density", "setting": "2500 kPa, x1 = 0.4198", "result": "1085.39 ± 0.57", "unit": "kg/m3"}, {"measurement": "mass density", "setting": "2500 kPa, x1 = 0.4847", "result": "1107.91 ± 0.62", "unit": "kg/m3"}, {"measurement": "mass density", "setting": "2500 kPa, x1 = 0.5713", "result": "1133.8 ± 0.7", "unit": "kg/m3"}, {"measurement": "mass density", "setting": "2500 kPa, x1 = 0.6827", "result": "1160.86 ± 0.73", "unit": "kg/m3"}, {"measurement": "mass density", "setting": "2500 kPa, x1 = 0.7919", "result": "1182.51 ± 0.78", "unit": "kg/m3"}, {"measurement": "mass density", "setting": "2500 kPa, x1 = 0.9317", "result": "1204.68 ± 0.84", "unit": "kg/m3"}, {"measurement": "mass density", "setting": "5000 kPa, x1 = 0.05056", "result": "831.49 ± 0.84", "unit": "kg/m3"}, {"measurement": "mass density", "setting": "5000 kPa, x1 = 0.103", "result": "889.93 ± 0.69", "unit": "kg/m3"}, {"measurement": "mass density", "setting": "5000 kPa, x1 = 0.1247", "result": "911.19 ± 0.64", "unit": "kg/m3"}, {"measurement": "mass density", "setting": "5000 kPa, x1 = 0.2126", "result": "980.64 ± 0.49", "unit": "kg/m3"}, {"measurement": "mass density", "setting": "5000 kPa, x1 = 0.2919", "result": "1029.31 ± 0.5", "unit": "kg/m3"}, {"measurement": "mass density", "setting": "5000 kPa, x1 = 0.3185", "result": "1042.83 ± 0.51", "unit": "kg/m3"}, {"measurement": "mass density", "setting": "5000 kPa, x1 = 0.4198", "result": "1086.84 ± 0.61", "unit": "kg/m3"}, {"measurement": "mass density", "setting": "5000 kPa, x1 = 0.4847", "result": "1109.29 ± 0.66", "unit": "kg/m3"}, {"measurement": "mass density", "setting": "5000 kPa, x1 = 0.5713", "result": "1135.1 ± 0.7", "unit": "kg/m3"}, {"measurement": "mass density", "setting": "5000 kPa, x1 = 0.6827", "result": "1162.12 ± 0.81", "unit": "kg/m3"}, {"measurement": "mass density", "setting": "5000 kPa, x1 = 0.7919", "result": "1183.7 ± 0.9", "unit": "kg/m3"}, {"measurement": "mass density", "setting": "5000 kPa, x1 = 0.9317", "result": "1205.83 ± 0.94", "unit": "kg/m3"}, {"measurement": "mass density", "setting": "10000 kPa, x1 = 0.05056", "result": "835.97 ± 0.98", "unit": "kg/m3"}, {"measurement": "mass density", "setting": "10000 kPa, x1 = 0.103", "result": "893.99 ± 0.77", "unit": "kg/m3"}, {"measurement": "mass density", "setting": "10000 kPa, x1 = 0.1247", "result": "915.1 ± 0.7", "unit": "kg/m3"}, {"measurement": "mass density", "setting": "10000 kPa, x1 = 0.2126", "result": "984.14 ± 0.49", "unit": "kg/m3"}, {"measurement": "mass density", "setting": "10000 kPa, x1 = 0.2919", "result": "1032.48 ± 0.52", "unit": "kg/m3"}, {"measurement": "mass density", "setting": "10000 kPa, x1 = 0.3185", "result": "1045.92 ± 0.55", "unit": "kg/m3"}, {"measurement": "mass density", "setting": "10000 kPa, x1 = 0.4198", "result": "1089.7 ± 0.7", "unit": "kg/m3"}, {"measurement": "mass density", "setting": "10000 kPa, x1 = 0.4847", "result": "1112.04 ± 0.77", "unit": "kg/m3"}, {"measurement": "mass density", "setting": "10000 kPa, x1 = 0.5713", "result": "1137.7 ± 0.9", "unit": "kg/m3"}, {"measurement": "mass density", "setting": "10000 kPa, x1 = 0.6827", "result": "1164.6 ± 1", "unit": "kg/m3"}, {"measurement": "mass density", "setting": "10000 kPa, x1 = 0.7919", "result": "1186.07 ± 1.1", "unit": "kg/m3"}, {"measurement": "mass density", "setting": "10000 kPa, x1 = 0.9317", "result": "1208.1 ± 1.2", "unit": "kg/m3"}, {"measurement": "mass density", "setting": "15000 kPa, x1 = 0.05056", "result": "840.22 ± 1.1", "unit": "kg/m3"}, {"measurement": "mass density", "setting": "15000 kPa, x1 = 0.103", "result": "897.89 ± 0.85", "unit": "kg/m3"}, {"measurement": "mass density", "setting": "15000 kPa, x1 = 0.1247", "result": "918.84 ± 0.75", "unit": "kg/m3"}, {"measurement": "mass density", "setting": "15000 kPa, x1 = 0.2126", "result": "987.5 ± 0.5", "unit": "kg/m3"}, {"measurement": "mass density", "setting": "15000 kPa, x1 = 0.2919", "result": "1035.56 ± 0.55", "unit": "kg/m3"}, {"measurement": "mass density", "setting": "15000 kPa, x1 = 0.3185", "result": "1048.93 ± 0.6", "unit": "kg/m3"}]}
